Assay results as given in paper PMC6891756, “Synthesis and Biological Evaluation of Novel Aminochalcones as Potential Anticancer and Antimicrobial Agents” (Molecules, 2019).
≈ marks a conversion by molar mass, not a printed value.

Columns and labels:
Trichophyton rubrum = tested on: Trichophyton rubrum; design: method as in doi:10.1007/s10600-018-2281-7; conditions: cited from earlier work
LoVo = assay: SRB antiproliferative assay, LoVo; format: cell-based, human; conditions: Homo sapiens, LoVo, 48 h, 1–100 µg·mL^−1, ND = not detected in the tested concentration range
Protocol: (§1) Anticancer activity was evaluated using the sulforhodamine B assay (SRB) on four different human colon cancer cell lines: HT-29, LS180, LoVo and LoVo/DX and green monkey kidney fibroblasts COS7 (ATCC, Manassas, VA, USA). Cell lines HT-29 and COS7 were cultured in α-MEM medium (IIET PAS, Wrocław, Poland), LS180 in OptiMEM medium (IIET PAS), LoVo and LoVo/DX in mixture of α-MEM and OptiMEM medium (1:1 (v:v)). Each culture medium was supplemented with 10% fetal bovine serum, 2 mM glutamine, 100 μg·mL^−1 penicillin, 100 μg·mL^−1 streptomycin and 0.25 μg·mL^−1 amphotericin (all supplements purchased from Gibco (Paisley, UK). Cells were incubated at 37 °C, 5% CO2 in HeraCELL 150i incubator (Thermo Fisher Scientific, Waltham, MA, USA).
(§2) For the SRB assay, cells were seeded onto 96-well plates (Sarstedt, Nümbrecht, Germany) at a density of 5·10^3/well and cultured overnight as described above. Then, the growth medium was gently removed and replaced with fresh medium, supplemented with aminochalcone derivatives in the concentration ranging from 1 µg·mL^−1 to 100 µg·mL^−1. All stock solutions were prepared in DMSO at a concentration of 10 mg·mL^−1. Cells were incubated for 48 h and then the SRB assay was performed as described previously. Each experiment was performed in quadruplicate. The final results were reported as the IC50 values calculated for three independent experiments. Cisplatin (Acros Organics, Waltham, MA, USA) and doxorubicin (Fisher BioReagents, Waltham, MA, USA) were used as positive controls of the test.

HT-29 = assay: SRB antiproliferative assay, HT-29; format: cell-based, human; conditions: Homo sapiens, HT-29; SRB, 48 h, 1–100 µg·mL^−1; ND = not detected in the tested concentration range
Protocol: as §1, §2

Candida albicans DSM1386 [1] = assay: Microbial growth curve screening, C. albicans; format: cell-based; conditions: 0.1% (w/v); for ∆OD C. albicans: OD at 560 nm, control 1.58; for Lag-phase C. albicans: control 3.0 h
Protocol: (§3) The antimicrobial screening tests were performed on two strains of bacteria: E. coli ATCC10536 and S. aureus DSM799, strain of yeast C. albicans DSM1386 and three strains of fungi: F. linii KB-F1, A. alternata CBS1526 and A. niger DSM1957. All microorganisms were obtained from the collection of the Faculty of Biotechnology and Food Microbiology, Wrocław University of Environmental and Life Sciences. The bacteria were cultured in nutrient broth (Biocorp, Warsaw, Poland), yeast and fungi in YM medium (3 g yeast extract, 3 g malt extract, 5 g bacteriological peptone and 10 g of glucose dissolved in 1 L of distilled water). The tests were carried out in 100-well microtiter plates. To each well 280 μL of culture medium, 10 μL of microorganism suspension and 10 μL of aminochalcone (1–18) dissolved in dimethyl sulfoxide (3% (w/v)) were added. The final concentration of the tested compound (1–18) was 0.1% (w/v). Each experiment were performed in 3 replications. The optical density of the cell suspension was measured on Bioscreen C (Automated Growth Curve Analysis System Lab System, Vantaa, Finland) at 560 nm automatically, at regular intervals of 30 min for 2–3 days. Cell cultures were maintained at 28 °C on a continuous shaker. To prepare the growth curves for each strain, the mean values of the absorbance in a function of time were used. The resulting antimicrobial activity was expressed as the increase of optical density (ΔOD) and was compared to that of the control cultures in the medium supplemented with dimethyl sulfoxide and also with reference substances: oxytetracycline (against bacteria), cycloheximide (against yeast) and nystatin (against fungi) (Sigma Aldrich).

LS180 = assay: SRB antiproliferative assay, LS180; format: cell-based, human; conditions: Homo sapiens, LS180, 48 h, 1–100 µg·mL^−1, ND = not detected in the tested concentration range
Protocol: as §1, §2

[2] = tested on: Alternaria alternata CBS1526; assay: MIC evaluation (broth method), A. alternata; format: cell-based; conditions: Alternaria alternata, CBS1526, 48–72 h, read-out: Minimal inhibitory concentration A. alternata
Protocol: (§4) Sterile 96-well microtiter plates (Sarstedt) with nutrient broth (for bacteria) (Biocorp) or YM medium (for yeast and filamentous fungi) were inoculated with a standardized cell suspension of bacteria and yeast or fungal spores of 10^5 cell·mL^−1, and supplemented with aminochalcones dissolved in DMSO. […] All analysis were conducted in triplicates. The plates were incubated at 30 °C (bacteria and yeast) or 25 °C (filamentous fungi) for 48–72 h. The results were measured with the Spark® Multimode Microplate Reader (Tecan, Männedorf, Switzerland) at a 560 nm wavelength. The minimal inhibitory concentration was defined as the lowest concentration of a tested compound that completely restricted the growth of the microorganism. In order to verify the obtained results, microbial cultures subjected to each concentration of aminochalcone were inoculated onto nutrient agar or YM plates and incubated as described above. The lack of growth on agar plate was a confirmation of the MIC of the tested compound. The resulting MIC values were compared with the reference substances: oxytetracycline (against bacteria), cycloheximide (against yeast) and nystatin (against fungi) (Sigma Aldrich).

[3] = tested on: Aspergillus niger DSM1957; assay: Microbial growth curve screening, A. niger; format: cell-based; conditions: 0.1% (w/v); for ∆OD A. niger: OD at 560 nm, control 2.14; for Lag-phase A. niger: control 11.0 h
Protocol: as §3

LoVo/DX = assay: SRB antiproliferative assay, LoVo/DX; format: cell-based, human; conditions: Homo sapiens, LoVo/DX, 48 h, 1–100 µg·mL^−1, ND = not detected in the tested concentration range
Protocol: as §1, §2

[4] = SRB assay, normal fibroblasts COS7; format: cell-based, green monkey; conditions: green monkey, COS7 kidney fibroblasts (normal cell line), ND = not detected in the tested concentration range
Protocol: as §1, §2

Fusarium linii KB-F1 [5] = assay: Microbial growth curve screening, F. linii; format: cell-based; conditions: 0.1% (w/v); for ∆OD F. linii: OD at 560 nm, control 1.95; for Lag-phase F. linii: control 13.5 h
Protocol: as §3

[6] = tested on: Staphylococcus aureus DSM799; assay: Microbial growth curve screening, S. aureus; format: cell-based; conditions: 0.1% (w/v); for ∆OD S. aureus: OD at 560 nm, control 1.67
Protocol: as §3

[7] = tested on: Escherichia coli ATCC10536; assay: Microbial growth curve screening, E. coli; format: cell-based; conditions: 0.1% (w/v); for ∆OD E. coli: OD at 560 nm, control 1.61
Protocol: as §3

[8] = tested on: Staphylococcus aureus DSM799; assay: MIC evaluation (broth method), S. aureus; format: cell-based; conditions: 48–72 h, read-out: Minimal inhibitory concentration S. aureus
Protocol: as §4

[9] = tested on: Escherichia coli ATCC10536; assay: MIC evaluation (broth method), E. coli; format: cell-based; conditions: 48–72 h, read-out: Minimal inhibitory concentration E. coli
Protocol: as §4

Candida albicans DSM1386 [10] = assay: MIC evaluation (broth method), C. albicans; format: cell-based; conditions: DSM1386, broth method, 48–72 h, read-out: Minimal inhibitory concentration C. albicans
Protocol: as §4

[11] = tested on: Aspergillus niger DSM1957; assay: MIC evaluation (broth method), A. niger; format: cell-based; conditions: Aspergillus niger, DSM1957, 48–72 h, read-out: Minimal inhibitory concentration A. niger
Protocol: as §4

Fusarium linii KB-F1 [12] = assay: MIC evaluation (broth method), F. linii; format: cell-based; conditions: Fusarium, KBF1, 48–72 h, read-out: Minimal inhibitory concentration F. linii
Protocol: as §4

[13] = tested on: Alternaria alternata CBS1526; assay: Microbial growth curve screening, A. alternata; format: cell-based; conditions: 0.1% (w/v); for ∆OD A. alternata: OD at 560 nm, control 1.86; for Lag-phase A. alternata: control 16.5 h
Protocol: as §3

Row | Structure (SMILES) | IC50 (LoVo) [µg/mL] | IC50 (HT-29) [µg/mL] | ∆OD C. albicans (Candida albicans DSM1386 [1]) | Lag-phase C. albicans (Candida albicans DSM1386 [1]) [h] | IC50 (LS180) [µg/mL] | MIC [2] [µg/mL] | ∆OD A. niger [3] | Lag-phase A. niger [3] [h] | IC50 (LoVo/DX) [µg/mL] | IC50 at 48 h [4] [µg/mL] | ∆OD F. linii (Fusarium linii KB-F1 [5]) | Lag-phase F. linii (Fusarium linii KB-F1 [5]) [h] | ∆OD S. aureus [6] | ∆OD E. coli [7] | melting point [°C] | MIC [8] [µg/mL] | MIC [9] [µg/mL] | MIC (Candida albicans DSM1386 [10]) [µg/mL] | MIC [11] [µg/mL] | MIC (Fusarium linii KB-F1 [12]) [µg/mL] | also measured
1 | Nc1ccccc1C(=O)/C=C/c1cccc([N+](=O)[O-])c1 [2′-amino-3-nitro-chalcone] |  |  |  |  |  |  |  |  |  |  |  |  |  |  |  |  |  |  |  |  | MIC80 Trichophyton rubrum (literature) (Trichophyton rubrum): 0.5 µg/mL (≈ 1.86 µM)
2 | CCc1ccc(/C=C/C(=O)c2ccc(N)cc2)cc1 [Compound 6, 4′-Amino-4-ethylchalcone] | 4.26 ± 0.19 (≈ 16.9 µM) | 3.61 ± 0.21 (≈ 14.4 µM) | 0.44 | 9.5 | 5.2 ± 0.3 (≈ 20.7 µM) | 1 (≈ 3.98 µM) | 0.41 | 36.5 | 3.68 ± 0.3 (≈ 14.6 µM) | 7.16 ± 0.34 (≈ 28.5 µM) | 0.40 | 9.0 | 0.87 | 0.16 | 125 |  |  |  |  |  | Lag-phase S. aureus ([6]; control 2.5 h): 28.0 h; Lag-phase E. coli ([7]; control 4.0 h): 3.5 h
3 | Nc1ccccc1C(=O)/C=C/c1ccc(C(=O)O)cc1 [Compound 7, 2′-Amino-4-carboxychalcone] | 7.68 ± 0.34 (≈ 28.7 µM) | 4.26 ± 0.13 (≈ 15.9 µM) |  |  | 7.86 ± 0.35 (≈ 29.4 µM) | 0.5 (≈ 1.87 µM) |  |  | 11.1 ± 0.44 (≈ 41.5 µM) | 7.78 ± 0.75 (≈ 29.1 µM) | 0.37 | 26.0 | 0.0 | 0.0 | 188 to 191 | 0.125 (≈ 0.468 µM) | 0.125 (≈ 0.468 µM) | 0.125 (≈ 0.468 µM) | 0.125 (≈ 0.468 µM) |  | 
4 | Nc1cccc(C(=O)/C=C/c2ccc([N+](=O)[O-])cc2)c1 [Compound 11, 3′-Amino-4-nitrochalcone] | 1.34 ± 0.1 (≈ 4.99 µM) | 2.77 ± 0.49 (≈ 10.3 µM) |  |  | 2.89 ± 0.53 (≈ 10.8 µM) |  | 0.83 | 39.5 | 1.36 ± 0.06 (≈ 5.07 µM) | 2.3 ± 0.45 (≈ 8.57 µM) | 0.0 |  | 0.0 | 0.0 | 166 to 168 | 0.25 (≈ 0.932 µM) | 1000 (≈ 3730 µM) | 0.25 (≈ 0.932 µM) | 1 (≈ 3.73 µM) | 0.5 (≈ 1.86 µM) | ∆OD A. alternata [13]: 0.55; Lag-phase A. alternata [13]: 42.0 h
5 | Nc1ccc(C(=O)/C=C/c2ccc([N+](=O)[O-])cc2)cc1 [Compound 12, 4′-Amino-4-nitrochalcone] | 1.8 ± 0.1 (≈ 6.71 µM) | 3.42 ± 0.54 (≈ 12.7 µM) | 0.13 | 12.0 | 4.64 ± 0.54 (≈ 17.3 µM) |  |  |  | 2 ± 0.12 (≈ 7.46 µM) | 3.1 ± 0.5 (≈ 11.6 µM) | 0.0 |  | 0.0 | 0.0 | 205 to 207 | 0.25 (≈ 0.932 µM) | 0.25 (≈ 0.932 µM) |  |  | 1 (≈ 3.73 µM) | ∆OD A. alternata [13]: 0.87; Lag-phase A. alternata [13]: 13.0 h
